We go through two molecules from patent US9096543B2, “Nuclear transport modulators and uses thereof” (Karyopharm Therapeutics Inc., priority 2012, dated 2015).

Test [1] deals with collagen-induced arthritis. In words: Collagen-Induced Arthritis (CIA) Study No. 2. The format is in vivo, Lewis rats. The procedure:
To further investigate the effect of the compounds described herein on inflammation biomarkers, a second CIA model was initiated. In this model, the groups were designated as group A (naïve), group B (model; vehicle-treated), group C (Compound 2 at 5 mg/kg QoD). The rats in groups B and C were immunized intradermally with bovine Type II collagen in IFA on day 0, and a booster injection was given on day 7. Compound 2 was orally administered to rats with CIA after the onset of arthritis (Day 11). CIA development was evaluated via macroscopic scoring and measurements of paw swelling. This was assessed every day for the first 5 days after sensitization (day 7), and then twice per week (Monday and Thursday) until Day 28 using the clinical scoring system described in Table 7 above. In addition, ELISAs for CD45, CRP, CCL2/MCP-1, RANKL, TNF-α, IL1-β, IL-6, IL-8, IL-15, IL-17, and measurements for cathepsin K and elastase were performed 4 days (Day 15 of the study) and 10 days (Day 21 of the study—peak for the disease) after compound treatment and at the very end of the study (Day 28) on all group animals. Additionally, on the last day of the study (Day 28), a few representative animals from each group were subjected to three-dimensional micro-tomodensitometry of calcaneus, and bone erosion was quantified.

In test [2] the test system is anti-collagen antibody induced arthritis. In words: Anti-collagen antibody induced mouse model of rheumatoid arthritis (CAIA). The format is in vivo, Balb/c mice. The procedure: Twenty-four (24) male Balb/c mice, aged 6 to 8 weeks were used. […] On study Day 0 (study commencement), all mice were subjected to a 2 mg intravenous injection of ArthritoMAb™ antibody cocktail (MD Biosciences #S1203001) followed by an intraperitoneal injection of LPS (100 μg/mouse) on study Day 3. […] Treatments were administered once daily on days 4, 6, 8 and 10 for all groups, except where dosing vacations applied. If an animal's weight dropped below 87% of its day 0 starting weight, the animal was not dosed until it gained weight equivalent to 90% or more of day 0 weight.
Arthritis development, clinical signs and body weights were monitored in all mice on study days 0, 3-8, 10 and 12. Observations included changes in skin, fur, eyes, mucous membranes, occurrence of secretions and excretions (e.g., diarrhea) and autonomic activity (e.g., lacrimation, salivation, piloerection, pupil size, unusual respiratory pattern). All paws (front left and right, and rear left and right) of each animal were examined for signs of arthritogenic responses prior to arthritis induction and test item or control item administration on study Day 0 and subsequently on study Days 3-8, 10 and 12 (study termination). A rthritis reactions were scored and recorded according to a 0-4 scale in ascending order of severity, as shown Table 5 below. Paw thickness was also measured using a dial caliper (Kroeplin, Munich, Germany).
The dose administered was calculated based on the assumption that the animals weighed, on average, 20 g. […] Vehicle for the vehicle control group was prepared by dissolving 0.6 g Pluronic and 0.6 g PVP in 100 mL distilled deionised water. The MAb stock solution (10 mg/mL) was supplied by MD Biosciences, Division of Morwell Diagnostics GmbH. LPS was diluted with PBS to achieve the appropriate concentration. Thorough vortexing was required just prior to its injection. […] A fixed volume of 200 μL was administered to each mouse.
Evaluation was primarily based on the mean values for arthritis scoring and paw thickness measurements. […]

The subject of test [3] is skin wounds. In words: Longitudinal full thickness skin incision wound model in mice. Format: in vivo, C57BL/6J mice. To be noted: Day 5 post-wounding; oral 4 or 7.5 mg/kg every other day, or topical 1 or 2.5 μM daily. The text has this:
The effects of Compound 1 on skin wound healing were studied in a mouse longitudinal full thickness skin incision wound model. Upon arrival, animals were identified by ear tags, weighed and left to acclimate for several days before initiation of the experiment. On the day of wounding, mice were weighed and divided into 6 experimental groups with 6 animals per group, in accordance to weight differences stratified randomization. Prior to the surgical procedure, mice were anesthetized with isoflurane and the back of the animals was trimmed. Full thickness longitudinal incisions of 20 mm were performed using a standard scalpel blade on the backs of the animals (parallel to the backbone). Three hours after wounding, due to skin elasticity and activity of the animals, the incisions took on elliptical shapes. At this stage, the widest area of the wound was measured to establish a baseline wound width. Wound healing evaluation was made by measuring the widest area of the wound. Treatment groups consisted of oral gavage or topical groups. During the experiment, wounds were photo-documented and morphological analysis was performed. At the end of the experiment, 8 days post wounding, mice were sacrificed, wound widths were measured and biopsies of the wound area were collected and subjected to analysis.
Dosing solutions were prepared fresh on each day of dosing. […]

“Also recorded” adds a separate entry of the source.

For the molecule `O=C(/C=C\n1cnc(-c2cc(C(F)(F)F)cc(C(F)(F)F)c2)n1)NNC(=O)CN1CCOCC1` [Compound 2, (Z)-3-(3-(3,5-bis(trifluoromethyl)phenyl)-1H-1,2,4-triazol-1-yl)-N′-(2-morpholinoacetyl)acrylohydrazide], the “joint swelling and clinical scores compared to vehicle-treated rats” value in test [1] (5 mg/kg QoD orally from Day 11) is reported as “significantly reduced joint swelling”. In addition, the “bone erosion in the rear paws (micro CT, BMD)” value in test [1] (5 mg/kg QoD, Day 28) was “significantly reduced bone erosion in the rear paws; also recorded: comparable to that of naïve animals”. In test [2] (7.5 mg/kg or 4 mg/kg orally), the anti-arthritic activity entry was “exhibited significant anti-arthritic activity” and the “days on which rear paw arthritis score was significantly reduced compared to vehicle” value was 5-12. Besides, the “days on which total arthritis score was significantly reduced compared to vehicle” value in test [2] (7.5 mg/kg orally, days 4, 6, 8, 10) is listed as 5-12.
Take `CC(C)(C)C(=O)NNC(=O)/C=C\n1cnc(-c2cc(C(F)(F)F)cc(C(F)(F)F)c2)n1` [Compound 1, (Z)-3-(3-(3,5-bis(trifluoromethyl)phenyl)-1H-1,2,4-triazol-1-yl)-N′-pivaloylacrylohydrazide]: the wound morphology assessment result in test [3] is “positive effect; also recorded: displayed efficacy, and had a positive impact on wound healing; also recorded: better wound healing, as measured by wound size reduction and better scabbing properties”.
